Data published in ChEMBL document CHEMBL4507268 (2021).

Key:
[1] = molecular target: Serine/threonine-protein kinase 32A (Homo sapiens) (UniProt Q8WU08); conditions: Compound concentration 1000.0 nM
[2] = molecular target: Dual serine/threonine and tyrosine protein kinase (Homo sapiens) (UniProt Q6XUX3); conditions: Compound concentration 1000.0 nM
[3] = molecular target: T1, Rhodopsin kinase GRK1 (Homo sapiens) (UniProt Q15835); conditions: Compound concentration 1000.0 nM
T1 sequence (whole entry): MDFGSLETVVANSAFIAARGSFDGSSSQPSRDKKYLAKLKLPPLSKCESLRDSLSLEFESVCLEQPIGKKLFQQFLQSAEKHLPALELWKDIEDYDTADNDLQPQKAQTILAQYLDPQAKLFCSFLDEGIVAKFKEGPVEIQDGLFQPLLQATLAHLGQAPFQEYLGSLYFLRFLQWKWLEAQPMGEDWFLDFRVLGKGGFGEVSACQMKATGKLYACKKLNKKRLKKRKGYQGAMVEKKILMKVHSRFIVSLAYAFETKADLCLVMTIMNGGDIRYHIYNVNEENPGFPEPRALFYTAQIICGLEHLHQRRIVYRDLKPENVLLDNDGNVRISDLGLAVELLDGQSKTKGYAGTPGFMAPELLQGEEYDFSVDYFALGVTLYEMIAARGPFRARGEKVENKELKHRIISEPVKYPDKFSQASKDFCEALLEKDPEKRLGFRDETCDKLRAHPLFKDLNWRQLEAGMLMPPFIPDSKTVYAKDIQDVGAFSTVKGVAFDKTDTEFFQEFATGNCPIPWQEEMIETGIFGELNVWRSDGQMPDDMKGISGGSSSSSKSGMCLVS

[4] = molecular target: Mitogen-activated protein kinase 10 (Homo sapiens) (UniProt P53779); conditions: Compound concentration 1000.0 nM
[5] = molecular target: T2, Serine/threonine-protein kinase TAO3 (Homo sapiens) (UniProt Q9H2K8); conditions: Compound concentration 1000.0 nM
T2 sequence (whole entry): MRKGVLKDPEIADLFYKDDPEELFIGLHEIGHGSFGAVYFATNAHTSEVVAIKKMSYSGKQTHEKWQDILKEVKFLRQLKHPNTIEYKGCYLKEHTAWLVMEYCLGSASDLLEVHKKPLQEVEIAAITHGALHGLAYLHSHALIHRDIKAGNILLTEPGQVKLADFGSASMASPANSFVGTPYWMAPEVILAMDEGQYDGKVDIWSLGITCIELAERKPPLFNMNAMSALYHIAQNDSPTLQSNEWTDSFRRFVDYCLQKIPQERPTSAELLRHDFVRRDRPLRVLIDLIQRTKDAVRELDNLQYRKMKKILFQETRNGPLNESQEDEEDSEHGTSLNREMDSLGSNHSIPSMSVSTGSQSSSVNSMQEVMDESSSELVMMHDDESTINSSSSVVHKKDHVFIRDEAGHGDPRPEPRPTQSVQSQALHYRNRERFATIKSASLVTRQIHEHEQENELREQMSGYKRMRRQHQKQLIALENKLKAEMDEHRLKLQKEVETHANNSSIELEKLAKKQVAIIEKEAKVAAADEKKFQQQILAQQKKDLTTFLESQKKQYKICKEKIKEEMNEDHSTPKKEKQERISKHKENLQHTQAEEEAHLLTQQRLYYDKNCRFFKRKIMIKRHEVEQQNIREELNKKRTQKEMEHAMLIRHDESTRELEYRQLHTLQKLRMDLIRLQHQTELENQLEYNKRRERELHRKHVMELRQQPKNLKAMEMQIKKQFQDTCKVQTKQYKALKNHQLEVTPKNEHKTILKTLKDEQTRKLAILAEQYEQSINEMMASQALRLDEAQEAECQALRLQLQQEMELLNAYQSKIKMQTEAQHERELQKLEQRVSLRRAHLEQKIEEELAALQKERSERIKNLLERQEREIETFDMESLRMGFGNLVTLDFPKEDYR

[6] = molecular target: T3, Serine/threonine-protein kinase BRSK2 (Homo sapiens) (UniProt Q8IWQ3); conditions: Compound concentration 1000.0 nM
T3 sequence (whole entry): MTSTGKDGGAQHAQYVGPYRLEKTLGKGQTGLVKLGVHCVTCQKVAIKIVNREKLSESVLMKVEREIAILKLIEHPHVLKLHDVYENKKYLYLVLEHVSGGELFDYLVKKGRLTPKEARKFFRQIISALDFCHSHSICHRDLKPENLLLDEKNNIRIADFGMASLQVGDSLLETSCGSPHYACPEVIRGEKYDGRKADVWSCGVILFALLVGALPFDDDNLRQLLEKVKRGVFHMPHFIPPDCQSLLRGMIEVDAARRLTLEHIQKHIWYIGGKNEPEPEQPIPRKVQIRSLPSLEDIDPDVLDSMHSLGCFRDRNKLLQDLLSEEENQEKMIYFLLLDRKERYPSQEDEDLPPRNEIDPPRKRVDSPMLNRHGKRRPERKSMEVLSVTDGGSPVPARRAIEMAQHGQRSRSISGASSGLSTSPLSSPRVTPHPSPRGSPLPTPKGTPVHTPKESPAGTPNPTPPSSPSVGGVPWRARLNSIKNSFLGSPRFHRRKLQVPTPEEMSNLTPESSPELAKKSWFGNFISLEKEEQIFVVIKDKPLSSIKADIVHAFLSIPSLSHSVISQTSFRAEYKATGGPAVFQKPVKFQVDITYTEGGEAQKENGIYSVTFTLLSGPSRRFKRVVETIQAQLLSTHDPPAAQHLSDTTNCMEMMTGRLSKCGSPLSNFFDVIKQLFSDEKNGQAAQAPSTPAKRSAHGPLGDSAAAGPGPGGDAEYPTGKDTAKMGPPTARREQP

[7] = molecular target: Phosphatidylinositol 5-phosphate 4-kinase type-2 gamma (Homo sapiens) (UniProt Q8TBX8); conditions: Compound concentration 1000.0 nM
[8] = molecular target: Wee1-like protein kinase 2 (Homo sapiens) (UniProt P0C1S8); conditions: Compound concentration 1000.0 nM
[9] = molecular target: Beta-2 adrenergic receptor (Homo sapiens) (UniProt P07550); conditions: Compound concentration 10.0 uM
[10] = molecular target: Misshapen-like kinase 1 (Homo sapiens) (UniProt Q8N4C8); conditions: Compound concentration 1000.0 nM
[11] = molecular target: Mitogen-activated protein kinase 7 (Homo sapiens) (UniProt Q13164); conditions: Compound concentration 1000.0 nM
[12] = molecular target: Serine/threonine-protein kinase 25 (Homo sapiens) (UniProt O00506); conditions: Compound concentration 1000.0 nM
[13] = molecular target: Peripheral plasma membrane protein CASK (Homo sapiens) (UniProt O14936); conditions: Compound concentration 1000.0 nM
[14] = molecular target: Platelet-derived growth factor receptor alpha (Homo sapiens) (UniProt P16234); conditions: Compound concentration 1000.0 nM
[15] = molecular target: Dual specificity mitogen-activated protein kinase kinase 5 (Homo sapiens) (UniProt Q13163); conditions: Compound concentration 1000.0 nM
[16] = system: SK-BR-3; assay: Proliferation assay: SK-BR-3 (breast cancer); type: functional, cell-based; conditions: Homo sapiens

Chain of Wee1-like protein kinase 2 (Homo sapiens) (P0C1S8 whole entry, looked up): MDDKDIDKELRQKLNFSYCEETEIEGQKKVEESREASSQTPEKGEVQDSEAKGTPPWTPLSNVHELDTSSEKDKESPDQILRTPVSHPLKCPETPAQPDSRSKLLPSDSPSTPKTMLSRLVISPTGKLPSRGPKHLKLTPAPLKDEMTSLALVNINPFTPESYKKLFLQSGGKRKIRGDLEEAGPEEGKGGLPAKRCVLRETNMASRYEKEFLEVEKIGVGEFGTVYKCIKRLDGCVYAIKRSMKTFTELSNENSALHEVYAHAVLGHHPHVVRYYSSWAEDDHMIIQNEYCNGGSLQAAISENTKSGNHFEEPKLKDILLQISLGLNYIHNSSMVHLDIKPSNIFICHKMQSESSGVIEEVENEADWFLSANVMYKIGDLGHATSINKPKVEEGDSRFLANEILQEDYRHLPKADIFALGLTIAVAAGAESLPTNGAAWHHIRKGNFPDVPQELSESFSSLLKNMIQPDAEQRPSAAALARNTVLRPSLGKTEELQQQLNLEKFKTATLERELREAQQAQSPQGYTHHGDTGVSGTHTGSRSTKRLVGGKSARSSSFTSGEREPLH
Chain of Dual serine/threonine and tyrosine protein kinase (Homo sapiens) (Q6XUX3 whole entry): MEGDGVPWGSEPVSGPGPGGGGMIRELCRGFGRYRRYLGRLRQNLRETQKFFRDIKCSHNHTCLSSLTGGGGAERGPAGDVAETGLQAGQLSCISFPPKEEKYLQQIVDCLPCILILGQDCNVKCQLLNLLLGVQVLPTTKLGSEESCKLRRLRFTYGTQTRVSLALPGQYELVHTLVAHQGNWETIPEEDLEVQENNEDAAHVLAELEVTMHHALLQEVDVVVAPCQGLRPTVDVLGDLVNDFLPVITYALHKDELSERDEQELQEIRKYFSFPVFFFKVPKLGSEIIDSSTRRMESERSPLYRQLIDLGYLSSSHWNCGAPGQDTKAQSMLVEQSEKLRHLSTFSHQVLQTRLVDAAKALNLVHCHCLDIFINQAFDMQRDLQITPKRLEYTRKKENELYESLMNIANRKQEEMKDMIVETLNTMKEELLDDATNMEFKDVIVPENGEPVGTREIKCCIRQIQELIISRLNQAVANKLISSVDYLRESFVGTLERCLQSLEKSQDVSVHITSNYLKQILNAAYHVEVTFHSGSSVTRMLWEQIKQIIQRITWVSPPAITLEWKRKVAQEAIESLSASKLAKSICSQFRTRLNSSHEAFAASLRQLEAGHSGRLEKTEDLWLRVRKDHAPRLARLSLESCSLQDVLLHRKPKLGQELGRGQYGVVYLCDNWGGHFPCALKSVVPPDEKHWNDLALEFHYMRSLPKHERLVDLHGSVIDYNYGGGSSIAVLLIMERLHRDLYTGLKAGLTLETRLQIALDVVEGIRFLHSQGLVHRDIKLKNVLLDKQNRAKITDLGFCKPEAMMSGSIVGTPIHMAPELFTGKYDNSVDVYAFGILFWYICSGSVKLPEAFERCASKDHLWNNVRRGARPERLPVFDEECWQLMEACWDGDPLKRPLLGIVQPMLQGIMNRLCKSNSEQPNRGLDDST
Chain of Mitogen-activated protein kinase 10 (Homo sapiens) (P53779 whole entry): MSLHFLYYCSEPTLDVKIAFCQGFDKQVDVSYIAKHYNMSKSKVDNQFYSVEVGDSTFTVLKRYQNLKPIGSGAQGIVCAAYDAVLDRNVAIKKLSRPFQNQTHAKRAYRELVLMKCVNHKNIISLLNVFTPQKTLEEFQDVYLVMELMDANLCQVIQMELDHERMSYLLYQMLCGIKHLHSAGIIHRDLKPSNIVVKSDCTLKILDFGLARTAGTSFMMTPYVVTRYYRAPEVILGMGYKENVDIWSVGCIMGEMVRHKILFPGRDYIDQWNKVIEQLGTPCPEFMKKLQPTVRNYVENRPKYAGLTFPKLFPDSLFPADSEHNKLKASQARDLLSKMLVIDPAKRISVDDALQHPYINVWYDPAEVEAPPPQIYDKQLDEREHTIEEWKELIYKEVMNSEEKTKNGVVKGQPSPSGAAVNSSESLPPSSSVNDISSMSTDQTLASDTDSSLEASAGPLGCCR
Chain of Serine/threonine-protein kinase 25 (Homo sapiens) (O00506 whole entry, looked up): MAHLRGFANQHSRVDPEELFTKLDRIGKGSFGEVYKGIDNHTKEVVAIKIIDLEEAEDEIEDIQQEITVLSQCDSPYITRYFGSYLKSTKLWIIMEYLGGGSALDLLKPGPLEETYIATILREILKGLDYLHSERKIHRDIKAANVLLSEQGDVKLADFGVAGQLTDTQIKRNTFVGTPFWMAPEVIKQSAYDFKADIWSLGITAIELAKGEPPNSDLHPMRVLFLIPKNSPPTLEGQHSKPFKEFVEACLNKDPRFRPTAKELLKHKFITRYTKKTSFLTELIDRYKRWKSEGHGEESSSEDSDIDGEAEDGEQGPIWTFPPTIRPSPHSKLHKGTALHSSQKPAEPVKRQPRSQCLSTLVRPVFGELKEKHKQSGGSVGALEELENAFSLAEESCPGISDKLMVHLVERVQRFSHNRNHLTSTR
Chain of Beta-2 adrenergic receptor (Homo sapiens) (P07550 whole entry, looked up): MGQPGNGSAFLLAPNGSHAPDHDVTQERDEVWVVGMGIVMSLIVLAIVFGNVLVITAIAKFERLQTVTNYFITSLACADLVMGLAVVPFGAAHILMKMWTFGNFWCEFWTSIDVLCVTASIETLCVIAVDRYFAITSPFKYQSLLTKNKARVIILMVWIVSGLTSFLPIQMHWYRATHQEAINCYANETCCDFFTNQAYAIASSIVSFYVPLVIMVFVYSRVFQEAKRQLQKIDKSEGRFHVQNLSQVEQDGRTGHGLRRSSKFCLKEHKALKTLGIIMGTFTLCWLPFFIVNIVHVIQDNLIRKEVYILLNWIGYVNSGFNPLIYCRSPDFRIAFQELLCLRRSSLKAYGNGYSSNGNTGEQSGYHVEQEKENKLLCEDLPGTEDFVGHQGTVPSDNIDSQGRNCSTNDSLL
Chain of Misshapen-like kinase 1 (Homo sapiens) (Q8N4C8 whole entry, looked up): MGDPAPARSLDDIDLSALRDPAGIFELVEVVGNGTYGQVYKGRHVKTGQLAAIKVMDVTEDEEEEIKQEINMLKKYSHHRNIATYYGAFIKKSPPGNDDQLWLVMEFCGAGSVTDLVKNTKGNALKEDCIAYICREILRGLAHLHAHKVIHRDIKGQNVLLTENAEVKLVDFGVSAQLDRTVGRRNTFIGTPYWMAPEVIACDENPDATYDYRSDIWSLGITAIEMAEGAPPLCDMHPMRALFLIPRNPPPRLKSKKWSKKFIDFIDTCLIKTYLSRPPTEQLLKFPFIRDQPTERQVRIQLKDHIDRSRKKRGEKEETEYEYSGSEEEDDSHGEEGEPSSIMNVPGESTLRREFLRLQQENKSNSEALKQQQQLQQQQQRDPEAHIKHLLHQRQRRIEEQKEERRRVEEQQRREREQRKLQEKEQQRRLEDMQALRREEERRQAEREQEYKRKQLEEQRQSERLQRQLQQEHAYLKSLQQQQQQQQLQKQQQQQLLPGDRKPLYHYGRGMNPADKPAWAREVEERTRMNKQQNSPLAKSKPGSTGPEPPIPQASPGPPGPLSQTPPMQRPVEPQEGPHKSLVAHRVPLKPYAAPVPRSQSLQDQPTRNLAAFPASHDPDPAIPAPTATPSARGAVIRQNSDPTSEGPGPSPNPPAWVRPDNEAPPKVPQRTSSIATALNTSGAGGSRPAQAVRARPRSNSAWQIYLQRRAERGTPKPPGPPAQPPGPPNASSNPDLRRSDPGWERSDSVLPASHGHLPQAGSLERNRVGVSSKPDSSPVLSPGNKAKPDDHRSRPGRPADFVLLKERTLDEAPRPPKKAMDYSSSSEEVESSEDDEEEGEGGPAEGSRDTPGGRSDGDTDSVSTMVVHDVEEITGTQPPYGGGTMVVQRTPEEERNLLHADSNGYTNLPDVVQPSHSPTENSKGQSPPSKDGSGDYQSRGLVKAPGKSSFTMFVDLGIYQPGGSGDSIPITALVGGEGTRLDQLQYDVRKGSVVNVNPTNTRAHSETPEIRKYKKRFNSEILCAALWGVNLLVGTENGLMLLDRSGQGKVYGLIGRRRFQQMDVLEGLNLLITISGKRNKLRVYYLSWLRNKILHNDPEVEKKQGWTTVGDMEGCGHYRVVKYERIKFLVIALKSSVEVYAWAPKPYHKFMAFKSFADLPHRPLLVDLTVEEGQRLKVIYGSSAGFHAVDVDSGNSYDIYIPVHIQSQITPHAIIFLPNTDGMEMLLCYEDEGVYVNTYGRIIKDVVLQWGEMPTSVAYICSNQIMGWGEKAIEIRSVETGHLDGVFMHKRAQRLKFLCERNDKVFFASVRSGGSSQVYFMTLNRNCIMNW
Chain of Dual specificity mitogen-activated protein kinase kinase 5 (Homo sapiens) (Q13163 whole entry): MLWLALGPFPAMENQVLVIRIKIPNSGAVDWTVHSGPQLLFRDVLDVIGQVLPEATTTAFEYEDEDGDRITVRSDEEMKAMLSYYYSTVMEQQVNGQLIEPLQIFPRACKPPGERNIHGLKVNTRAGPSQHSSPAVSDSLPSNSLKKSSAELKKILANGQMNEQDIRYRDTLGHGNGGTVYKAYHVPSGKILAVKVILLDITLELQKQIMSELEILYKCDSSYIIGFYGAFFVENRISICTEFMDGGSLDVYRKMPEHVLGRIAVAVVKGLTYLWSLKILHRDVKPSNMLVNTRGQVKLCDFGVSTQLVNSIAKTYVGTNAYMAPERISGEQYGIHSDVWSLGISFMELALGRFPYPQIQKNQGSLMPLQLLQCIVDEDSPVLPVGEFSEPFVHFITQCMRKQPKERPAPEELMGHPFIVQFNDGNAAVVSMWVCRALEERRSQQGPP
Chain of Phosphatidylinositol 5-phosphate 4-kinase type-2 gamma (Homo sapiens) (Q8TBX8 whole entry): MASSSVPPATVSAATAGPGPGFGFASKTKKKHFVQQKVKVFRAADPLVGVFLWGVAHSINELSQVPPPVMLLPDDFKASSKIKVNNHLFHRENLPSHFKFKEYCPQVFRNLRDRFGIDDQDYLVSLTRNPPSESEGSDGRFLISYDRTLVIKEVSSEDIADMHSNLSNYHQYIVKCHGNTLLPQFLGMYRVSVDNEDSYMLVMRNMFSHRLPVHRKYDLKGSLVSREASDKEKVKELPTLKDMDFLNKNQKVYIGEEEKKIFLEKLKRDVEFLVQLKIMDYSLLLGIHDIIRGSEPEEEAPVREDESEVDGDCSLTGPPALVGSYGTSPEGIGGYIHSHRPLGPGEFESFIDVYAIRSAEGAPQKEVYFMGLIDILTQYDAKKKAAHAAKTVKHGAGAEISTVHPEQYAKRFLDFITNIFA

SMILES | residual activity [1] | residual activity [2] | residual activity [3] | residual activity [4] | residual activity [5] | residual activity [6] | residual activity [7] | residual activity [8] | inhibition [9] | residual activity [10] | residual activity [11] | residual activity [12] | residual activity [13] | residual activity [14] | residual activity [15] | IC50 [16]
CN1CCN(c2cnc3c(C4CCN(C(=O)c5ccc(OC(F)(F)F)cc5N)CC4)ncnc3c2)CC1 [BAY-885] | 94% | 100% | 96% | 100% | 100% | 100% | 100% | 100% | -4.21% | 85% | 0.1% | 92% | 89% | 100% | 86% | > 30 µM (not active)
Cc1nc(C2CCN(C(=O)c3ccc(OC(F)(F)F)cc3N)CC2)c2ncc(N3CCN(C)CC3)cc2n1 [BAY-693] | 86% | 95% | 100% | 100% | 100% | 100% | 100% | 100% | -5.65% | 93% | 22% | 100% | 87% | 100% | 83% | 22.4 µM (not active)
